Like-named read-outs stand apart in the source and are kept apart here. One block for each compound: values may come before it.
What was measured:
[1] = molecular target: T1, ABCG2 (Homo sapiens, UniProt Q9UNQ0, R482G); test: Vanadate sensitive ATPase activity in isolated membranes of ABCG2-expressing Sf9 cells
T1 sequence (Q9UNQ0 1-655 R482G): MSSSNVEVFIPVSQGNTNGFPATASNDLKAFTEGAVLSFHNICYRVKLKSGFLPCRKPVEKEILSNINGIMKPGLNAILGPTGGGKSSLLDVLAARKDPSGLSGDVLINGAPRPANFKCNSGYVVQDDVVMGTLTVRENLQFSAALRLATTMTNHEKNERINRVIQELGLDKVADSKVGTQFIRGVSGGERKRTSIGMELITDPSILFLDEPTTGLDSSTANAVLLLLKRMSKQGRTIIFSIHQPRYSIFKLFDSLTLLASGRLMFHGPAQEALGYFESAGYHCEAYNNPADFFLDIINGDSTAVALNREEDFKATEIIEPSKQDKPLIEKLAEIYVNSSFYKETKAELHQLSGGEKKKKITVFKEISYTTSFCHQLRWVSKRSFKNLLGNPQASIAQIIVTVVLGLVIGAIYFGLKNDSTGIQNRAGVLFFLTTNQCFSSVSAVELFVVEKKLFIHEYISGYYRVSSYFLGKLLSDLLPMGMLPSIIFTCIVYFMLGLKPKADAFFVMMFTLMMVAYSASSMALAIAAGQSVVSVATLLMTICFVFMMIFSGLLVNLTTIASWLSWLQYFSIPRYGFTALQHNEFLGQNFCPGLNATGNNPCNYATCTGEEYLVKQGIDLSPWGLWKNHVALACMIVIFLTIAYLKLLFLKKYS
Text: FIG. 2: Comparison of the effects of various compounds on the vanadate sensitive ATPase activity in isolated Sf9 membranes of ABCG2 (FIG. 2a) or MDR1 (FIG. 2b) expressing Sf9 cells. […] Data points indicate the mean±S.D. values of at least four measurements, performed in two or three different membrane preparations.
Individual clones expressing high levels of the human ABCG2 were obtained by end-point dilution and subsequent amplification. The clone producing the highest yield of the ABCG2 protein was selected by immunoblotting (see below).
The reaction mixture contained 40 mM MOPS-Tris (pH 7.0), 50 MM KCl, 2 mM dithiothreitol, 500 μM EGTA-Tris, 5 mM Na-azide, 1 mM oubain and 5-20 μg membrane protein. […] The vanadate sensitive faction was determined in the presence of 1 mM Na-orthovanadate.

[2] = molecular target: human MDR1 protein (Homo sapiens, UniProt P08183)
human MDR1 protein, sequence (P08183 whole entry): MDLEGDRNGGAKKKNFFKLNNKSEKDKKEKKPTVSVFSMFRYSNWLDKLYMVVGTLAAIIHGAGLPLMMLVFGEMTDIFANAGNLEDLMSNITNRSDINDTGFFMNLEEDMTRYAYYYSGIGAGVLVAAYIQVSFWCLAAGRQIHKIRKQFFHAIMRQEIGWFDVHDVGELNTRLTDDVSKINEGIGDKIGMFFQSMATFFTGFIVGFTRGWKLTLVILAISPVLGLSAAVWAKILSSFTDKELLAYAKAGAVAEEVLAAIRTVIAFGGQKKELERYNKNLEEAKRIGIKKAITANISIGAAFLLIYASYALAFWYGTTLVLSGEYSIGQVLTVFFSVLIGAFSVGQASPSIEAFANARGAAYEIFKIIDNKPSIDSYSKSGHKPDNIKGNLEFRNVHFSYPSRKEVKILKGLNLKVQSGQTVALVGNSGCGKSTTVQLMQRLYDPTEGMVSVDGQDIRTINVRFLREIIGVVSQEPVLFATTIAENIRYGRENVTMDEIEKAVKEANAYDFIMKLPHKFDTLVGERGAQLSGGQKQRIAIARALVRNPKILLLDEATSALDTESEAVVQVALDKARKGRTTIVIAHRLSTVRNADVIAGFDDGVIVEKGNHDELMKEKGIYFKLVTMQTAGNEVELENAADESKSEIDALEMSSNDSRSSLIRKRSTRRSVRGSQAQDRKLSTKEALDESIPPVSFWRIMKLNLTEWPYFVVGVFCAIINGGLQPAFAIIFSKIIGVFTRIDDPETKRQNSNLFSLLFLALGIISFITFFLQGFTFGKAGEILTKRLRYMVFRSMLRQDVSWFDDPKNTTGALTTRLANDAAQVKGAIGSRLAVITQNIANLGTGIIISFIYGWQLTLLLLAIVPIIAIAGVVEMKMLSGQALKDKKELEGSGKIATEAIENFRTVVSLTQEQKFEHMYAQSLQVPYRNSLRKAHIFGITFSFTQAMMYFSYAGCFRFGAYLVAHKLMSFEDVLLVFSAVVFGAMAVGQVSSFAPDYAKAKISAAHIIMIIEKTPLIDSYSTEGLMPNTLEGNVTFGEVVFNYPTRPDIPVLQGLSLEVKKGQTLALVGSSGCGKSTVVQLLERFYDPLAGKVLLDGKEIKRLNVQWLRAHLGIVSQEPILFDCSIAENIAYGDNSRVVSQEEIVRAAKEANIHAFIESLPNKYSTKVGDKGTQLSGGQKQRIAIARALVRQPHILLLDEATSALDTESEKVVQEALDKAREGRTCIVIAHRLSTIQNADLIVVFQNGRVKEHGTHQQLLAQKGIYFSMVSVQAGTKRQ
Description: Data points indicate the mean±S.D. values of at least four measurements, performed in two or three different membrane preparations. Control values show the activity measured in the absence of added compounds.

[3] = molecular target: T1, ABCG2
Description: FIG. 5. Mitoxantrone uptake in intact Sf9 cells expressing ABCG2 variants.
Flow-cytometry determination of MX fluorescence after 30 min incubation at 37° C.
Cells were washed once and suspended in HPMI. Aliquots of the suspension containing 3×10^5 cells were incubated with or without the addition of 5 μM MX, and also with 5 μM MX+10 μM FTC (a specific inhibitor of ABCG2). After an incubation for 30 minutes at 37° C. the cells were washed with ice-cold HPMI medium and than suspended in ice-cold HPMI containing 1.51 μl 10 mg/ml propidium-iodide and stored on ice until the flow cytometry measurements. […] Events were counted up to 15000 and dead cells were excluded based on propidium iodide staining.

[4] = molecular target: T1, ABCG2; test: Hoechst dye uptake in intact Sf9 cells expressing ABCG2 (fluorescence spectrophotometry); assay type: cell-based; design: removing the full length human ABCG2 cDNA (G482 variant); expressed in transfected cells; host or cells: Sf9 insect cells infected with recombinant baculovirus
Description: FIG. 6. Hoechst dye uptake followed by fluorescence spectrophotometry in Sf9 cells expressing ABCG2482G (Panel A) or ABCG2 K86M mutant (Panel B). Abscissa: time in seconds. Ordinate: relative fluorescence in arbitrary units.
Hoechst33342 uptake—Hoechst dye uptake (5 μM) was measured in a fluorescence spectrophotometer at 350 nm (excitation)/460 nm (emission), by using 3×10^5 cells in a HPMI solution. This dye becomes fluorescent only in a complex with DNA (Haugland, MP catalogue). The initial increase of fluorescence is due to a rapid dye uptake and nuclear staining in dead cells, while further cellular dye uptake is reflected by an increase in fluorescence. At the end of each experiment, for standardization, a full cellular staining is obtained by the addition of 8 μM digitonin, disrupting the integrity of the cell membrane.

[5] = relative to the ATPase activity measured in the absence of compound

Compound: CC(=O)OCOC(=O)CN(CC(=O)OCOC(C)=O)Cc1cc2c(cc1OC(C)=O)Oc1cc(OC(C)=O)c(CN(CC(=O)OCOC(C)=O)CC(=O)OCOC(C)=O)cc1C21OC(=O)c2ccccc21 [Calcein-AM, calcein acetoxy-methylesther]
- Effect on ABCG2-ATPase activity ([1]; result in words): no effect
- Kact, MDR1-ATPase [2]: about 1 μM
- Stimulation of MDR1-ATPase [2]: 4.5 fold

- Emax ([1]; human, pH 7): 50%
- Kact ([1]; human, pH 7): 2,5 mM
Compound: COc1cccc2c1C(=O)c1c(O)c3c(c(O)c1C2=O)C[C@@](O)(C(C)=O)C[C@@H]3O[C@H]1C[C@H](N)[C@H](O)[C@H](C)O1 [Daunorubicin]

- Emax ([1]; human, pH 7): 30%
- Kact ([1]; human, pH 7): 5 mM
Compound: COc1cccc2c1C(=O)c1c(O)c3c(c(O)c1C2=O)C[C@@](O)(C(=O)CO)C[C@@H]3O[C@H]1C[C@H](N)[C@H](O)[C@H](C)O1 [Doxorubicin]

Compound: COc1ccc2c3c([nH]c2c1)[C@H](C=C(C)C)N1C(=O)[C@@H]2CCCN2C(=O)[C@@H]1C3 [Fumitremorgin C]
- Ki [1]: 1.3 µM
- Maximum inhibition (%) [1, 5]: 74%
- Effect on ABCG2-ATPase activity ([1]; result in words): strongly inhibited
- Effect on active extrusion of fluorescent compounds by ABCG2 482 variants ([3]; 482R, 482G, 482T variants, intact Sf9 cells): inhibited
- Effect on verapamil stimulated MDR1-ATPase activity ([2]; 33 μM verapamil): no significant effect
- Effect on MDR1-ATPase activity ([2]; basal, result in words): no significant effect

Compound: CCOc1ccc(-c2nc3ccc(-c4nc5ccc(N6CCN(C)CC6)cc5[nH]4)cc3[nH]2)cc1 [Hoechst dye, Hoechst33342]
- Hoechst dye extrusion by ABCG2-expressing Sf9 cells [4]: actively extrude

Compound: Nc1ncnc2c1ncn2[C@@H]1O[C@H](COP(=O)(O)OP(=O)([O-])OP(=O)([O-])O)[C@@H](O)[C@H]1O.[Mg+2] [MgATP]
- Km [1]: ~300 µM
- MgATP concentration producing half-maximum membrane ATPase activity [1]: 0.3 mM
- Km ([1]; read-out: KM ATP, without an added substrate): 600 µM

Compound: O=C1c2c(O)ccc(O)c2C(=O)c2c(NCCNCCO)ccc(NCCNCCO)c21 [Mitoxantrone]
- Effect on ABCG2-ATPase activity ([1]; human, pH 7): stimulated the ABCG2-ATPase activity in a concentration dependent manner
- Emax ([1]; human, pH 7): 40%
- Kact ([1]; human, pH 7): 7 mM
- Mitoxantrone extrusion by ABCG2-expressing Sf9 cells ([3]; intact cells, flow cytometry): actively extrude
- Effect on MDR1-ATPase activity [2]: no significant effect

Compound: CCN1C(=O)C=CC1=O [NEM, N-ethylmaleimide]
- Ki [1]: 10 µM

Compound: [Na+].[Na+].[Na+].[O]=[V]([O-])([O-])[O-] [Na-orthovanadate]
- Ki [1]: ~20 µM

Compound: Rhodamine 123
- Kact [1]: 4,5 mM
- Maximum stimulation (%) [1, 5]: 20%

Source: patent publication US20040175762A1, “Screening system based on expression of abcg2 half transporter protein” (priority 2001, published 2004)
